Results taken from patent publication US20100120679A1, “Targeting NBS1-ATM Interaction To Sensitize Cancer Cells To Radiotherapy And Chemotherapy” (SOUTHERN RESEARCH INSTITUTE, priority 2006, published 2010).
Peptide text beside a SMILES is read from it. * marks the point of attachment. Biotin = O=C1N[C@H]2[C@H](CS[C@H]2CCCCC(=O)*)N1

What was measured:
[1] = tested on: NBS1 phosphorylation on serine 343 in DU-145 cells; assay: IR-induced NBS1 pSer343 focus formation, DU-145; assay type: cell-based, human; settings: DU-145, 10 μM peptide, 6Gy, 120 minutes
From the text: (§1) Error bars represent +/−1 SD, graphed are the mean of three independent experiments.
(§2) To further support the idea that wtNIP can inhibit ATM-mediated DNA damage pathways, IR-induced NBS1 focus formation, an event considered to be an ATM-dependent process at the sites of DSBs (Lim et al., 2000) was investigated. NBS1 foci are a result of ATM-mediated NBS1 phosphorylation on serine 343. […] The average number of foci in mock-irradiated HeLa cells was 6, 8, and 6 for R9, wtNIP, and scNIP, respectively.

[2] = tested on: NBS1 phosphorylation on serine 343 in HeLa cells; assay: IR-induced NBS1 pSer343 focus formation, HeLa; assay type: cell-based, human
From the text: as §1, §2

[3] = tested on: M059J cells (defective DNA-PKcs); assay: Colony formation assay (radiosensitivity), M059J; assay type: cell-based
Procedure: (§3) Colony number was determined with a dissecting microscope. […] The following formula was used: […]
(§4) To test this possibility, colonyforming assays were performed in cell lines with defective ATM (GM9607) or DNA-PKcs (M059J). […] Because GM9607 cells are ATM-deficient and have functional ATR and DNA-PKcs, these observations strongly indicate that wtNIP can specifically target ATM, but not ATR or DNA-PKcs, to achieve radiosensitization.

[4] = target: T1, NBS1-ATM interaction (Homo sapiens, UniProt Q13315); assay: Co-immunoprecipitation of ATM with NBS1 in peptide-treated cells; assay type: cell-based
T1 construct: endogenous in cells; host or cells: HeLa
T1 sequence (Q13315 whole entry): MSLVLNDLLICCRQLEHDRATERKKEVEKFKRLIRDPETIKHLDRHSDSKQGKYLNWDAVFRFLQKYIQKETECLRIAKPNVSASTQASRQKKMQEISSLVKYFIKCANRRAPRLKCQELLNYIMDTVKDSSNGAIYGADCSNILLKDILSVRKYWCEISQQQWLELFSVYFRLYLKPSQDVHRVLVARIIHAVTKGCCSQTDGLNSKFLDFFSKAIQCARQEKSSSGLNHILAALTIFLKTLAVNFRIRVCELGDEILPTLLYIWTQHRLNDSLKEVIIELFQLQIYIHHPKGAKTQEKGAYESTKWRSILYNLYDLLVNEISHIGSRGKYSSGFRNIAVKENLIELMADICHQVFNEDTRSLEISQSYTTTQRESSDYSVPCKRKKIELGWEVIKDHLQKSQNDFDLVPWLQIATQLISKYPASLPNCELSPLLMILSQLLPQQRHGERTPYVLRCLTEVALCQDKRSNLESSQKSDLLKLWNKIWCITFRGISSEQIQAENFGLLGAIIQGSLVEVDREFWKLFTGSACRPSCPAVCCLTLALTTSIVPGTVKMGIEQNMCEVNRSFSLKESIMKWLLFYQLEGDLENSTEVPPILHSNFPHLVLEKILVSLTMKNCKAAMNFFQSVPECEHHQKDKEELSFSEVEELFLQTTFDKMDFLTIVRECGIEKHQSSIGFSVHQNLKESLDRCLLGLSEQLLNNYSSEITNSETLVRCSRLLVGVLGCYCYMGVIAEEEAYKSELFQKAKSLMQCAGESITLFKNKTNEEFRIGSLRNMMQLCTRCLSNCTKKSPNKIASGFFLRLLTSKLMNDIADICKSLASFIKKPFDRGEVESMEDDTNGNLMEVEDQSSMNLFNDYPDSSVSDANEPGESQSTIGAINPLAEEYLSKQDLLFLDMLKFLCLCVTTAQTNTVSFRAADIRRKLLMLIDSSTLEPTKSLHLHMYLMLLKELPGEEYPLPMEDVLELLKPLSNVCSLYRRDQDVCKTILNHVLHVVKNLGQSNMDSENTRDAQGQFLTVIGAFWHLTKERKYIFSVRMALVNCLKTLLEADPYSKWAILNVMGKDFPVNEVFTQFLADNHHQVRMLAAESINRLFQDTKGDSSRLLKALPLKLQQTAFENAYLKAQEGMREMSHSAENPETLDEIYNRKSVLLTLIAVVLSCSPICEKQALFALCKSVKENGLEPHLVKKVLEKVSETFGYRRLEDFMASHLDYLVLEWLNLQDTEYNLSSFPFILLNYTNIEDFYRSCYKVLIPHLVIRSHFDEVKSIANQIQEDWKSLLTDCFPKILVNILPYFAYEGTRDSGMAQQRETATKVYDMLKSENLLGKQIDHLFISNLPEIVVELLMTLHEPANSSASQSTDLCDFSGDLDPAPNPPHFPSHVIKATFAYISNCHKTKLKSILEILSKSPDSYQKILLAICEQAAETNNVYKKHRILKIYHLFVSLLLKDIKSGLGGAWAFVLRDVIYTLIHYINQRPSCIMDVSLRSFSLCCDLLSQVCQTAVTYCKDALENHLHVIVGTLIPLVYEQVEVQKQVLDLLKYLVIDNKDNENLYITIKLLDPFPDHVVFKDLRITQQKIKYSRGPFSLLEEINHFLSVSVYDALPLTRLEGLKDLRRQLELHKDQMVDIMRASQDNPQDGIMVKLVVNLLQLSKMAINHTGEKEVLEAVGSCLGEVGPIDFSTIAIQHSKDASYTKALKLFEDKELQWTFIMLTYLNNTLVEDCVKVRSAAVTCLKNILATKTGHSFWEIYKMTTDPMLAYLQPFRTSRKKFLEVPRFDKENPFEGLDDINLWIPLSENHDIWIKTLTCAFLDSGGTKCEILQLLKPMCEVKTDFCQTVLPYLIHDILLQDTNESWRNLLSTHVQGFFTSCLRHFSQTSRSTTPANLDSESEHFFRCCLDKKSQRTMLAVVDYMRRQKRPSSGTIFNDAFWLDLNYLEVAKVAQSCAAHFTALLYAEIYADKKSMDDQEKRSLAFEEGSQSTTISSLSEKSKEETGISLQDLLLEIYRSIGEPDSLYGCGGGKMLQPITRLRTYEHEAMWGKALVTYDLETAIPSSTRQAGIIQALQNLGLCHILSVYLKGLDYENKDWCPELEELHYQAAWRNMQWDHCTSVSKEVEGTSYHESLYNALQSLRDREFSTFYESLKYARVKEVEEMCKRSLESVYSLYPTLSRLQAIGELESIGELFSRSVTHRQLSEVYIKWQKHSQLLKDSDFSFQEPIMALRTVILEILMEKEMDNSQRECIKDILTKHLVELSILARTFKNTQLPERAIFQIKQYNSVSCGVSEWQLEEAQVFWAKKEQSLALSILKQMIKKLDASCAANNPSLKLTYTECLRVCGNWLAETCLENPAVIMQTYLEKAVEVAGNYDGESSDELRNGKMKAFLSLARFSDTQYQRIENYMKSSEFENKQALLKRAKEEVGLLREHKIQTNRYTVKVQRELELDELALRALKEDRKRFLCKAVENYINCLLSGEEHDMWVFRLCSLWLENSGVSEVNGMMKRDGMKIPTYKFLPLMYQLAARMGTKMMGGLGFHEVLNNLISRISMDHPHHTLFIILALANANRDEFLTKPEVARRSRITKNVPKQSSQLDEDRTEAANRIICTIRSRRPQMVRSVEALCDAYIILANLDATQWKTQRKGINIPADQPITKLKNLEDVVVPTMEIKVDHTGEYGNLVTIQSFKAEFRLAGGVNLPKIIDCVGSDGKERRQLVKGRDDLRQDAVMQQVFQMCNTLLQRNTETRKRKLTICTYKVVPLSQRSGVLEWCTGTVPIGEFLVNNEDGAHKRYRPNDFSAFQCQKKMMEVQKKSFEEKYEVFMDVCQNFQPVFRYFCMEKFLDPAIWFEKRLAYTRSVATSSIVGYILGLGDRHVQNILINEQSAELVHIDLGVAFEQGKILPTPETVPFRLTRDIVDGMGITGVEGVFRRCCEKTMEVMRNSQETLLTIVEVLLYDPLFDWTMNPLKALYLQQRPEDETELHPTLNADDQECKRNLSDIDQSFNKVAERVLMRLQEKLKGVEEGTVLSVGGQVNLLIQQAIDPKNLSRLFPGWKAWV
Procedure: HeLa cells treated with the NIP peptides were irradiated (0 or 6Gy). Immunoprecipitation was performed with a rabbit NBS1 antibody, and Western blotting was performed with monoclonal antibodies against ATM, NBS1 or MRE11.
Immunoprecipitation and Western blotting: For co-immunoprecipitation of ATM, NBS1 and MRE11, cells were lysed 1 hour in ice-cold lysis buffer, which consisted of 10 mM Tris-HCl (pH 7.5), 100 mM NaCl, 5 mM EDTA, 0.5% NP-40, 5 mM Na3VO4, 1 mM NaF, and 1 mM PMSF. After centrifugation, supernatants were incubated with indicated antibodies. After extensive washing with the lysis buffer, immunoprecipitates were analyzed by immunoblot using specific antibodies. For western blotting analysis, samples (cell lysates or immunoprecipitates) were separated on 4-12% SDS-poly-acrylamide gels, transferred to nitrocellulose membranes, and probed with various antibodies.
wtNIP Abrogated the NBS1-ATM Interaction: To investigate whether R9-conjugated NIP peptides could inhibit NBS1-ATM interactions, coimmunoprecipitation experiments were performed in cells treated with the NIP peptides. Four hours after peptide treatment, HeLa cells were harvested and subjected to immunoprecipitation using an anti-NBS1 antibody. The immunoprecipitates were then blotted with anti-ATM, NBS1, and MRE11 antibodies.

[5] = tested on: GM9607 cells (defective ATM); assay: Colony formation assay (radiosensitivity), GM9607; assay type: cell-based, human
Procedure: as §3, §4

[6] = tested on: γ-H2AX foci in DU-145 cells; assay: IR-induced γ-H2AX focus formation, DU-145; assay type: cell-based, human; settings: 10 μM peptide, 6Gy
From the text: as §1
wtNIP Inhibits IR-Induced γ-H2AX and NBS1 pSer343 Focus Formation: One of the earliest responses to IR-induced DNA damage is the formation of γ-H2AX foci, which requires functional ATM (Burma et al., 2001; Furuta et al., 2003). […] Immunofluorescence microscopy was used to detect the presence of γ-H2AX foci in mock-irradiated or irradiated cells in the presence of R9, wtNIP or scNIP. […] Therefore, IR-induced γ-H2AX focus formation can be inhibited by wt-NIP.

[7] = tested on: HeLa cells; assay: Length of time the peptides remain in cells (degradation, immunofluorescence)
Procedure: HeLa cells were treated with 10 μM R9, wtNIP, or scNIP for one hour and harvested at indicated time points before they were analyzed by immunofluorescence microscopy staining with an […].
Immunofluorescence microscopy: Exponentially growing cultures of cells were plated on sterile, […] coverslips, and incubated for 24 hours at 37° C. in 5% CO2 humidified air before they are treated with the NIP peptides at room temperature. Coverslips were washed with PBS and fixed with 4% paraformaldehyde-0.25% Triton X-100 for 15 minutes at room temperature, blocked for 30 minutes at room temperature, and incubated with FITC-conjugated streptavidin or anti-γH2AX and phospho-NBS1 antibodies (Rockland Immunochemicals, Gilbertsville, Pa.) for 1 hour at room temperature. Coverslips were then mounted with Vectashield Elite (Vector Labs, Burlingame, Calif.) and observed with a Leica fluorescence microscope. Images were captured at 40× magnification using a Q Imaging Retiga Exi digital camera and analyzed with Image Pro-Plus 5.1 software.
Because the peptides would be used in radiation studies, the length of time the peptides remain in cells was determined to ensure that the peptides would be present throughout the DNA repair process after IR.

CC(C)C[C@H](NC(=O)[C@H](CC(=O)O)NC(=O)[C@H](CC(=O)O)NC(=O)[C@H](C)NC(=O)[C@H](CC(C)C)NC(=O)[C@H](CO)NC(=O)[C@H](CCC(=O)O)NC(=O)[C@H](CCC(=O)O)NC(=O)[C@H](CCCCN)NC(=O)[C@H](CCCNC(=N)N)NC(=O)[C@H](CCCNC(=N)N)NC(=O)[C@H](CCCNC(=N)N)NC(=O)[C@H](CCCNC(=N)N)NC(=O)[C@H](CCCNC(=N)N)NC(=O)[C@H](CCCNC(=N)N)NC(=O)[C@H](CCCNC(=N)N)NC(=O)[C@H](CCCNC(=N)N)NC(=O)[C@H](CCCNC(=N)N)NC(=O)CCCC[C@@H]1SC[C@@H]2NC(=O)N[C@@H]21)C(=O)O [wtNIP] (Biotin-RRRRRRRRRKEESLADDL-OH)
IR-induced NBS1 phosphorylation [1]: abrogates IR-induced NBS1 phosphorylation
NBS1 pSer343 foci per nucleus ([2]; HeLa cells after treatment with 6-Gy IR): 6 foci per nucleus
NBS1 phosphorylation (anti-phospho-Ser343 NBS1 antibody) ([2]; compared with R9 or scNIP treated cells): significantly inhibited
average number of NBS1 pSer343 foci ([2]; mock-irradiated HeLa cells): 8
SER [3]: 1.83
change in radiosensitivity [3]: increase in radiosensitivity
ATM-NBS1 association (anti-NBS1 immunoprecipitation, anti-ATM blot) ([4]; HeLa cells treated with IR): effect similar to that in unirradiated cells
ATM-NBS1 association (anti-NBS1 immunoprecipitation, anti-ATM blot) ([4]; HeLa cells, four hours after peptide treatment, unirradiated): NBS1 was no longer able to bring down ATM
change in radiosensitivity [5]: no change in radiosensitivity
IR-induced γ-H2AX focus formation [6]: significantly reduced H2AX foci/nucleus
presence of peptides in cells [7]: strong distribution
